Reference: patent publication US9555061B2, “Synthesis and analysis of compounds capable of inducing differentiation of human mesenchymal stems cells into hepatocytes” (National University Corporation Torrori University, priority 2011, dated 2017)
Like-named read-outs stand apart in the source and are kept apart here.

Key:
[1] = test system: β-catenin/Tcf complex; details: Drug Discov. Today 2005, 10, 1467-1474; cited from earlier work
[2] = test system: UE7T-13 cells; assay: Periodic acid-Schiff (PAS) staining (UE7T-13); type: cell-based, human
Experimental: (3-4) Periodic Acid-Schiff (PAS) Staining (UE7T-13) A cover glass (22×22 mm, […]) was sterilized with 70% EtOH and placed in a 6-well plate. Next, cells were seeded on the cover glass and cultured in a medium containing IC-2, etc. At 8, 16, and 24 days after the initiation of the culture, the cells were washed twice with PBS. Then, the cells were treated with 4% paraformaldehyde/PBS for 20 min and fixed onto the cover glass. As a negative control, 10 mg/ml of α-amylase (10 mg/ml; in 0.1 M phosphate buffer solution at pH 6.8) was added, and the cells were incubated therewith at 37° C. for 1 h to digest their glycogen. Subsequently, 1% aqueous periodic acid was used for oxidation treatment for 10 min. After that, the cells were treated with a Schiff reagent for 15 min to stain glycogen. Then, the cells were washed three times with aqueous sulfurous acid and were washed three times with distilled water. After their nuclei were stained with Mayer's hematoxylin, 50% glycerol diluted with PBS was used to mount the cover glass. Finally, the cells were observed under a light microscope. The cells which had been cultured with 0.1% DMSO were used as a control.

[3] = test system: UE7T-13 cells; details: human
[4] = test system: Wnt/β-catenin signaling pathway; assay: Ability of inhibiting Wnt/β-catenin pathway, luciferase assay (UE7T-13); type: cell-based, human; details: 8 days after the treatment; pTCF4-CMV-luciferase reporter
Source text: FIG. 3 is a schematic diagram illustrating how to establish a human mesenchymal stem cell stably expressing a β-catenin/TCF4/luciferase reporter gene. FIG. 3 illustrates how to construct pTCF4-CMVpro-GL4.20 plasmid by using a luciferase expression vector. The pTCF4-CMVpro-GL4.20 plasmid contains three TCF4 sequences […] upstream of a CMV promoter to express luciferase. In addition, pCMVpro-GL4.20 plasmid was constructed as a control. The resulting plasmids were each linearized, introduced into UE7T-13 by electroporation, and selected using puromycin (0.25 μg/ml) supplemented in a medium. Puromycin-resistant cells were cloned and used for a luciferase assay.
The cell line having a vector stably expressing luciferase was seeded on a 24-well plate, and was cultured at 37° C. At the next day, the medium was changed to a medium containing IC-2, etc., and the cell line was further cultured at 37° C. After that, at days 1, 4, and 8, a luciferase assay system (Promega) was used and the luciferase activity was read with a fluorescence plate reader (ARVO) at a wavelength of 556 nm.

[5] = test system: clinical specimen-derived mesenchymal stem cells; assay: PAS staining in clinical specimen-derived mesenchymal stem cells; type: cell-based, human; details: day 8, PN-3-13 20 μM, IC-2 40 μM
Experimental: PAS staining was performed according to the following procedure. A cover glass that had been sterilized with 100% ethanol was placed on a 12-well plate. Cells were seeded on the cover glass at a cell density of 1.8×10^4 cells/cm^2. This day was designated as day 0. At day 1 corresponding to the next day, each medium was changed to a medium containing HC-2 (at a final concentration of 20 μM), PN-3-13 (at a final concentration of 20 μM), IC-2 (at a final concentration of 40 μM), or 0.1% DMSO. At day 4, the medium was changed in a manner similar to that at day 1, and the cells were cultured until day 8. At day 8, the cells were washed twice with PBS and were fixed with 4% paraformaldehyde for 30 min. As a negative control, α-amylase (Nacalai Tesque) at a final concentration of 10 mg/ml was added, and the cells were incubated therewith at 37° C. for 1 h to digest their glycogen. Subsequently, the cells were treated with 1% aqueous periodic acid for 5 min. Then, the cells were treated with a Schiff reagent (Nacalai Tesque) for 15 min to stain glycogen. After that, the cells were washed three times with aqueous sulfurous acid and were then washed three times with distilled water. The nuclei were stained with Mayer's Hematoxylin (MUTO PURE CHEMICALS CO., LTD.) for 1 min. […]

[6] = test system: CD90+CD271+ bone marrow-derived mesenchymal stem cells; assay: Urea assay in CD90+CD271+ bone marrow-derived mesenchymal stem cells; type: cell-based, human; details: hexachlorophene 4 μM, PN-3-13 20 μM, IC-2 40 μM; day 8 plus 96 h ammonium chloride
Experimental: A urea assay was performed according to the following protocol. CD90^+CD271^+ bone marrow-derived mesenchymal stem cells were seeded on a 24-well plate at a cell density of 1.8×10^4 cells/cm^2. This day was designated as day 0. At day 1 corresponding to the next day, each medium was changed to a medium containing hexachlorophene (at a final concentration of 4 μM), HC-2 (at a final concentration of 20 μM), PN-3-13 (at a final concentration of 20 μM), IC-2 (at a final concentration of 40 μM), or 0.1% DMSO. At day 4, the medium was changed in a manner similar to that at day 1, and the cells were cultured until day 8. At day 8, the medium was removed, and replaced with a medium containing ammonium chloride (Nacalai Tesque) at a final concentration of 5 mM. The cells were further cultured for 96 h. At 96 h after the addition of ammonium chloride, levels of urea in the medium were determined using a QuantiChrom Urea Assay Kit (BioAssay Systems) according to the attached protocol by reading the absorbance at a wavelength of 520 nm with a microplate reader. The levels of urea were calculated based on a standard sample according to the attached calculation method. As a negative control for the urea assay, used were CD90^+CD271^+ bone marrow-derived mesenchymal stem cells that were seeded one day before the day of the immunostaining and were not subjected to the differentiation induction.

[7] = test system: UE7T-13 cells; assay: Proliferation potential (toxicity), MTT assay (UE7T-13); details: days 2, 4, 8 of treatment
[8] = test system: clinical specimen-derived mesenchymal stem cells; assay: RT-PCR of hepatocyte differentiation marker in clinical specimen-derived mesenchymal stem cells; type: cell-based, human; details: hexachlorophene 4 μM, HC-2 20 μM, PN-3-13 20 μM, IC-2 40 μM
Experimental: A fresh bone marrow aspirate was collected under informed consent from a patient (a person) with osteoarthritis who underwent replacement arthroplasty at the Department of Orthopedic Surgery, Tottori University Hospital. This aspirate was subjected to density gradient centrifugation using ficoll (Amersham Biosciences) to separate bone marrow mononuclear cells (FIG. 31). These bone marrow mononuclear cells were suspended in 1 ml of Hanks' balanced salt solution (HBSS, Gibco, Life Technologies Corp.) supplemented with a 100-fold diluted APC-labeled anti-CD90 antibody, a 407-fold diluted PE-labeled anti-CD271 antibody, and 2% fetal bovine serum (FBS, Defined, Thermo Fisher Scientific Inc.), and were stained on ice for 30 min. A flow cytometer (MoFlo XDP, Beckman Coulter Inc.) was used to selectively separate mesenchymal stem cells. The resulting cells were cultured in Dulbecco's Modified Eagle's Medium (Low Glucose, Gibco, Life Technologies Corp.) containing 20% FBS, 100 U/ml penicillin, […] streptomycin (Nacalai Tesque), and 20 ng/ml basic fibroblast growth factor (TRANS GENIC INC., Ltd.) on a 35-mm dish under conditions at 37° C. and 5% CO2. The medium was changed every 4 days. After colonies were formed, the cells were detached using a 0.025% trypsin/1 mM EDTA solution (Nacalai Tesque), split on a 100-mm dish, and cultured under conditions at 37° C. and 5% CO2. Then, the cells which were kept 70 to 80% confluent were detached using trypsin treatment. These cells in one dish were divided into four dishes for passage.
Cells were seeded on a 6-well plate at a cell density of 1.8×10^4 cells/cm^2. This day was designated as day 0. At day 1 corresponding to the next day, the medium was changed to a medium containing any one of hexachlorophene (at a final concentration of 4 μM), HC-2 (at a final concentration of 20 μM), PN-3-13 (at a final concentration of 20 μM), IC-2 (at a final concentration of 40 μM), and 0.1% DMSO. […]

[9] = test system: clinical specimen-derived mesenchymal stem cells; assay: Immunofluorescence staining in clinical specimen-derived mesenchymal stem cells; type: cell-based, human; details: day 8; PN-3-13 20 μM, IC-2 40 μM
Experimental: A cover glass that had been sterilized with 100% ethanol was placed on a 12-well plate. Cells were seeded on the cover glass at a cell density of 1.8×10^4 cells/cm^2. This day was designated as day 0. At day 1 corresponding to the next day, the medium was changed to a medium containing HC-2 (at a final concentration of 20 μM), PN-3-13 (at a final concentration of 20 μM), IC-2 (at a final concentration of 40 μM), or 0.1% DMSO. At day 4, the medium was changed in a manner similar to that at day 1. At day 8, the culture medium was removed and the cells were washed twice with PBS. Then, in order to perform immunostaining of albumin, the cells were fixed for 20 min with 4% paraformaldehyde (Nacalai Tesque) containing 8% sucrose (Wako Pure Chemical Industries, Ltd.). For immunostaining of C/EBPα or CYP1A1, the cells were fixed for 20 min with 4% paraformaldehyde. After that, the cells were permeated with 0.2% Triton X-100 (Wako Pure Chemical Industries, Ltd.) for 10 min and were then blocked in 3% BSA (Nacalai Tesque) at room temperature for 30 min without shaking.
After the primary antibody reaction, the cells were washed with 0.1% BSA/PBS. […] The cells were incubated with each antibody, and were kept in a dark condition at room temperature for 1 h to carry out a secondary antibody reaction. Their nuclei were stained with DAPI (Cell Signaling Technology Inc.). […]

Row | levels of expression of albumin, C/EBPα, and CYP1A1 compared with negative control (0.1% DMSO) [9] | Structure (SMILES) | antagonism of transcriptional activation by a β-catenin/Tcf complex [1] | intracellular glycogen accumulation compared with negative control (0.1% DMSO) [2] | concentration with very low cell toxicity toward UE7T-13 cells [3] [µM] | concentration that significantly inhibited the Wnt/β-catenin signaling pathway [4] [µM] | cellular glycogen accumulation compared with negative control (0.1% DMSO) [5] | cellular urea synthesis compared with negative control (0.1% DMSO) [6] | concentration with very low cell toxicity toward UE7T-13 cells [7] [µM] | expression of albumin [8]
1 |  | O=C1[C@H](Cc2ccc(O)cc2)N2C(=O)CCN(C(=O)NCc3ccccc3)[C@H]2CN1Cc1cccc2ccccc12 [ICG-001] | potent antagonist | did not increase |  |  |  |  |  | 
2 |  | COc1c(Cl)cc(Cl)c(Cl)c1Cc1c(Cl)c(Cl)cc(Cl)c1OC [HC-1, bis(2,3,5-trichloro-6-methoxyphenyl)methane] |  |  | ≤ 8 | ≥ 2 |  |  |  | 
3 | apparently increased | O=C(N/N=C/c1c(F)c(F)c(F)c(F)c1F)c1ccccc1Oc1ccccc1 [PN-3-13, N′-[(E)-pentafluorophenylmethylidene]-2-phenoxybenzohydrazide] |  |  |  | ≥ 9 | apparent increase | apparent increase | ≤ 10 | induced
